In assay [1] the target is T1, Serine/threonine-protein kinase ULK1 (Homo sapiens) (UniProt O75385).
T1 sequence (whole entry): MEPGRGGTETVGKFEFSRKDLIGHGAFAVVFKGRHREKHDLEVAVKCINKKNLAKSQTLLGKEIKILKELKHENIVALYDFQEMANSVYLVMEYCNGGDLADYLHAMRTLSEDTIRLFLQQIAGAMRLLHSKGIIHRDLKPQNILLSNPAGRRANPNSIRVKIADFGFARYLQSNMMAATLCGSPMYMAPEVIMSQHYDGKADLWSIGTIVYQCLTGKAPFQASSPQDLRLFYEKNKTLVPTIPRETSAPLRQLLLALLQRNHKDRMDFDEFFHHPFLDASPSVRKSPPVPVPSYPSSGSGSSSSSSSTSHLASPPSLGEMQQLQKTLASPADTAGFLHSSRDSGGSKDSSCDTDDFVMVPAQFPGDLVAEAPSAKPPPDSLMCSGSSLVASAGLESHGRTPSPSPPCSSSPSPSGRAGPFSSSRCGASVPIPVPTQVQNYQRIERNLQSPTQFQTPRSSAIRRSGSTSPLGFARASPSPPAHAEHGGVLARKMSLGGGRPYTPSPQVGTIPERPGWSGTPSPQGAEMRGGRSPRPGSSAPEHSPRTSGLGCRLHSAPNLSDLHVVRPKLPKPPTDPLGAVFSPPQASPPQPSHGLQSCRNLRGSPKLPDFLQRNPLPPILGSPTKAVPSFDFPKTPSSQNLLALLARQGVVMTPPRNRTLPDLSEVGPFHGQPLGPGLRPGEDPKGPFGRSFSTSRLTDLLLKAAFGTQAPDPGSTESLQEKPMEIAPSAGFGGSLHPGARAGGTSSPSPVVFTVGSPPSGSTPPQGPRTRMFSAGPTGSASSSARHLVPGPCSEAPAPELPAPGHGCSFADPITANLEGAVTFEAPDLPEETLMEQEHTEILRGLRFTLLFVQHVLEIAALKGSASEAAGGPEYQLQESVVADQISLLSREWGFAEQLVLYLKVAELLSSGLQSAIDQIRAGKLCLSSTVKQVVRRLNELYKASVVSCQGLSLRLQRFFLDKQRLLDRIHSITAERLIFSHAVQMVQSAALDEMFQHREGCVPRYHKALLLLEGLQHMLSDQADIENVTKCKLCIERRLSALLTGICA
The experiment in a line: Inhibition of ULK1 (unknown origin) relative to control. To be noted: concentration not given here.

The subject of assay [2] is Non-small cell lung cancer cell line. Nature of the assay: Antiproliferative activity against Non-small cell lung cancer cells (unknown origin). The assay is classed as functional, cell-based.

SMILES strings stand for the structures.

`O=c1c(O)c(-c2ccc(O)c(O)c2)oc2cc(O)ccc12`: in assay [1], the inhibition (usually how much of the control response was suppressed) turned out to be 75%.
On to `C=CC(=O)Nc1cc(Nc2nccc(-c3cn(C)c4ccccc34)n2)c(OC)cc1N(C)CCN(C)C` [OSIMERTINIB], for which inhibition in assay [2] was half-maximal at 41 nM (IC50).

These data come from ChEMBL document CHEMBL5512630, “The mechanism of UNC-51-like kinase 1 and the applications of small molecule modulators in cancer treatment” (Eur J Med Chem, 2024).
